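Cells were grown in 96-well plates and exposed to each compound for 48 hours at five concentrations; endpoints were interpolated linearly between bracketing concentrations, or set to the highest concentration if not reached. Abbreviation: GI50, concentration required for 50% inhibition of growth. TGI denotes the concentration required for complete inhibition of growth.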
Legend:
Experiment in all cases: inhibition of tumour cell growth, NCI panel, 48 h
KM12 colon = tested on: KM12 colon
SF-268 CNS = tested on: SF-268 CNS
UACC-257 melanoma = tested on: UACC-257 melanoma
SNB-19 CNS = tested on: SNB-19 CNS
SK-OV-3 ovarian = tested on: SK-OV-3 ovarian
MDA-MB-231 breast = tested on: MDA-MB-231 breast
A549 NSCLC = tested on: A549 NSCLC
K-562 leukemia = tested on: K-562 leukemia
MOLT-4 leukemia = tested on: MOLT-4 leukemia
MDA-MB-435 = tested on: MDA-MB-435
HOP-92 NSCLC = tested on: HOP-92 NSCLC
CCRF-CEM leukemia = tested on: CCRF-CEM leukemia
OVCAR-5 ovarian = tested on: OVCAR-5 ovarian
SW-620 colon = tested on: SW-620 colon
SN12C renal = tested on: SN12C renal
HOP-62 NSCLC = tested on: HOP-62 NSCLC
SNB-75 CNS = tested on: SNB-75 CNS
DU-145 prostate = tested on: DU-145 prostate
BT-549 breast = tested on: BT-549 breast
MALME-3M melanoma = tested on: MALME-3M melanoma
RPMI-8226 leukemia = tested on: RPMI-8226 leukemia
PC-3 prostate = tested on: PC-3 prostate
U251 CNS = tested on: U251 CNS
HS 578T breast = tested on: HS 578T breast
HT29 colon = tested on: HT29 colon
786-0 renal = tested on: 786-0 renal
SK-MEL-5 melanoma = tested on: SK-MEL-5 melanoma
NCI-H226 lung = tested on: NCI-H226 lung
RXF 393 renal = tested on: RXF 393 renal
HCT-15 colon = tested on: HCT-15 colon
A498 renal = tested on: A498 renal
SR leukemia = tested on: SR leukemia
ACHN renal = tested on: ACHN renal
OVCAR-4 ovarian = tested on: OVCAR-4 ovarian
EKVX NSCLC = tested on: EKVX NSCLC
SF-295 CNS = tested on: SF-295 CNS
COLO 205 colon = tested on: COLO 205 colon
SK-MEL-2 melanoma = tested on: SK-MEL-2 melanoma
OVCAR-3 ovarian = tested on: OVCAR-3 ovarian
UACC-62 melanoma = tested on: UACC-62 melanoma
UO-31 renal = tested on: UO-31 renal
IGROV1 ovarian = tested on: IGROV1 ovarian
T-47D breast = tested on: T-47D breast
NCI-H522 lung = tested on: NCI-H522 lung
CAKI-1 renal = tested on: CAKI-1 renal
SK-MEL-28 melanoma = tested on: SK-MEL-28 melanoma
TK-10 renal = tested on: TK-10 renal
SF-539 CNS = tested on: SF-539 CNS

CNCc1cccc2c1OCCCCCCC(C)(O)CC(C)(C)S(=O)(=O)c1ccc(cc1)-c1cnc(N)c(n1)C(=O)N2 (centres undefined)
GI50 (KM12 colon): 1320 nM | TGI (KM12 colon): 2940 nM | GI50 (SF-268 CNS): 1270 nM | TGI (SF-268 CNS): 3570 nM | GI50 (UACC-257 melanoma): 1290 nM | TGI (UACC-257 melanoma): 2720 nM | GI50 (SNB-19 CNS): 1880 nM | TGI (SNB-19 CNS): 5460 nM | GI50 (SK-OV-3 ovarian): 1850 nM | TGI (SK-OV-3 ovarian): 18400 nM | GI50 (MDA-MB-231 breast): 953 nM | TGI (MDA-MB-231 breast): 3140 nM | GI50 (A549 NSCLC): 123 nM | TGI (A549 NSCLC): 2460 nM | GI50 (K-562 leukemia): 43.6 nM | TGI (K-562 leukemia): > 100000 nM | GI50 (MOLT-4 leukemia): 15.1 nM | TGI (MOLT-4 leukemia): 2570 nM | GI50 (MDA-MB-435): 558 nM | TGI (MDA-MB-435): 2050 nM | GI50 (HOP-92 NSCLC): 10200 nM | TGI (HOP-92 NSCLC): 25900 nM | GI50 (CCRF-CEM leukemia): 13.8 nM | TGI (CCRF-CEM leukemia): > 20400 nM | GI50 (OVCAR-5 ovarian): 2240 nM | TGI (OVCAR-5 ovarian): 10300 nM | GI50 (SW-620 colon): 1360 nM | TGI (SW-620 colon): 4170 nM | GI50 (SN12C renal): 1170 nM | TGI (SN12C renal): 12700 nM | GI50 (HOP-62 NSCLC): 1320 nM | TGI (HOP-62 NSCLC): 3750 nM | GI50 (SNB-75 CNS): 453 nM | TGI (SNB-75 CNS): 6460 nM | GI50 (DU-145 prostate): 603 nM | TGI (DU-145 prostate): 3240 nM | GI50 (BT-549 breast): 762 nM | TGI (BT-549 breast): 8990 nM | GI50 (MALME-3M melanoma): 1210 nM | TGI (MALME-3M melanoma): 2580 nM | GI50 (RPMI-8226 leukemia): 637 nM | TGI (RPMI-8226 leukemia): 3000 nM | GI50 (PC-3 prostate): 910 nM | TGI (PC-3 prostate): 9170 nM | GI50 (U251 CNS): 366 nM | TGI (U251 CNS): 1940 nM | GI50 (HS 578T breast): 381 nM | TGI (HS 578T breast): 2910 nM | GI50 (HT29 colon): 51.5 nM | TGI (HT29 colon): 1890 nM | GI50 (786-0 renal): 27.9 nM | TGI (786-0 renal): 2100 nM | GI50 (SK-MEL-5 melanoma): 1300 nM | TGI (SK-MEL-5 melanoma): 2570 nM | GI50 (NCI-H226 lung): 1130 nM | TGI (NCI-H226 lung): 6210 nM | GI50 (RXF 393 renal): 47.7 nM | TGI (RXF 393 renal): 1370 nM | GI50 (HCT-15 colon): 92 nM | TGI (HCT-15 colon): 1310 nM | GI50 (A498 renal): 3580 nM | TGI (A498 renal): 16000 nM | TGI (SR leukemia): 1190 nM | GI50 (ACHN renal): 30.6 nM | TGI (ACHN renal): 2560 nM | GI50 (OVCAR-4 ovarian): 1130 nM | TGI (OVCAR-4 ovarian): 2720 nM | GI50 (EKVX NSCLC): 1870 nM | TGI (EKVX NSCLC): 6970 nM | GI50 (SF-295 CNS): 1410 nM | TGI (SF-295 CNS): 2840 nM | GI50 (COLO 205 colon): 66.4 nM | TGI (COLO 205 colon): 1520 nM | GI50 (SK-MEL-2 melanoma): 1850 nM | TGI (SK-MEL-2 melanoma): 4250 nM | GI50 (OVCAR-3 ovarian): 277 nM | GI50 (UACC-62 melanoma): 1690 nM | TGI (UACC-62 melanoma): 3340 nM | GI50 (UO-31 renal): 224 nM | TGI (UO-31 renal): 2210 nM | GI50 (IGROV1 ovarian): 433 nM | TGI (IGROV1 ovarian): 4480 nM | GI50 (T-47D breast): 6440 nM | TGI (T-47D breast): 32700 nM | GI50 (NCI-H522 lung): 548 nM | TGI (NCI-H522 lung): 2070 nM | GI50 (CAKI-1 renal): 401 nM | TGI (CAKI-1 renal): 2270 nM | GI50 (SK-MEL-28 melanoma): 1240 nM | TGI (SK-MEL-28 melanoma): 2540 nM | GI50 (TK-10 renal): 3290 nM | TGI (TK-10 renal): 12200 nM | GI50 (SF-539 CNS): 27.4 nM | TGI (SF-539 CNS): 2010 nM

— PubChem BioAssay (NCI)
